“And” between values parts separate entries of the source, which are not always exact repeats. Identical values can stand only once. Like-named read-outs stand apart in the source and are kept apart here. Square brackets hold non-standard residues; d marks the D form. Primed or numbered codes have the meaning given here. Ends that are not written are not given here. Peptide text beside a SMILES is read from it. * marks the point of attachment. d1Nal = N[C@H](Cc1cccc2ccccc12)C(=O)O; Palmitoyl = CCCCCCCCCCCCCCCC(=O)*; PEG2′ = not defined here
Key:
Ghrelin receptor [1] = target: T1, Ghrelin receptor (Homo sapiens, UniProt Q92847); test: Inositol phosphate turnover assay in COS-7 cells transfected with the Ghrelin receptor; details: for x-fold over No. 2: EC50 relative to peptide 2; for Δeff (%): efficacy, mean ± SEM of |Efficacymax - Efficacymin|
Procedure: Data were analyzed with GraphPad Prism 6.0 program (GraphPad Software, San Diego, CA, USA). EC50, pEC50 and Emax values were obtained from concentration–response curves. All signal transduction assays were performed in duplicate and repeated at least two times independently.

Ghrelin receptor [2] = target: T1, Ghrelin receptor; test: Competitive binding assay with ^125I-His-Ghrelin in COS-7 cells stably transfected with the Ghrelin receptor; design: expressed in transfected cells; host or cells: COS-7; details: for x-fold over Ghrelin: Ki relative to Ghrelin; for x-fold over 2: Ki relative to peptide 2; for Ki: competition with ^125I-His-Ghrelin, read-out: Ki ± SD
Procedure: Each experiment was performed in triplicates. IC50 values of the binding curves were calculated by nonlinear regression on a sigmoidal dose-response based model by using program GraphPad Prism 6.0. Ki values were calculated by Cheng-Prusoff equation.

PC-3 tumors [3] = test: Biodistribution of 10c in PC-3 tumor bearing mice with blocking; type: in vivo; details: one hour after injection
Procedure: (§1) The tumor mice with xenotransplanted PC-3 or DU-145 tumors were used when the tumors reached 0.54 ± 0.34 g or 0.18 ± 0.09 g (mean ± SD, n = 9), respectively. […] The mice were sacrificed one hour after injection and the organs and tissues were extracted. The activity measurements and calculations were carried out as described for the rat biodistribution experiments.

PC-3 tumors [4] = test system: PC-3 tumors; design: species or system mice; details: mouse, in vivo
Procedure: (§2) Anesthetized, spontaneously breathing animals were allowed to stabilize for 10 min after preparation. The animals were positioned on a heated bed to maintain the body temperature at 37°C. The PET studies were carried out with a NanoScanPET/CT (Mediso, Hungary) or a microPET P4® (Siemens preclinical solutions, Knoxville, TN, USA). The activity of the injection solution was measured in a well counter (Isomed 2000, Dresden, Germany) cross-calibrated to the PET scanners. A 10 min transmission scan was recorded during this time for each subject by using a rotating point source of ^57Co (microPET). The transmission scans were used to correct the emission scan for γ-ray attenuation caused by body tissues and supporting structures; it was also used to demarcate the body field for image registration. […] At the end of the experiment, the animals were deeply anesthetized and sacrificed by an intravenous injection of potassium chloride. Acquisition was performed in 3D list mode. Emission data were collected continuously. The list mode data were sorted into sinograms with 32 or 38 frames (15 × 10 s, 5 × 30 s, 5 × 60 s, 4 × 300 s, 3 × 600 s, or 9 × 600 s). The data were decay-, scatter-, and attenuation-corrected. The frames from the microPET were reconstructed by Ordered Subset Expectation Maximization applied to 3D sinograms (OSEM3D) with 14 subsets, 15 OSEM3D iterations, 25 maximum a posteriori (MAP) iterations, and 1.8 mm resolution using the […] algorithm (Siemens Preclinical Solutions, Knoxville, TN, USA). The voxel size was 0.07 by 0.07 by 0.12 cm. The PET images measured with the nanoScanPET/CT were reconstructed using a three-dimensional Ordered Subsets Expectation Maximization (3D-OSEM) algorithm (Tera-Tomo, Mediso Ltd., Hungary) into dynamic frames as described and with a voxel size of 0.05 cm. No correction for partial volume effects was applied. The image volume data were converted to Siemens ECAT7 format for further processing and were then analyzed using the ROVER software (ABX GmbH, Radeberg, Germany). Masks for defining three-dimensional regions of interest (ROI) were set and the ROI's were defined by thresholding and ROI time activity curves (TAC) were derived for the subsequent data analysis. […] The ROIs were so determined that no surrounding tissue was included. The ROI data and TAC were further analyzed using R (R is available as Free Software under the terms of the Free Software Foundation's GNU General Public License in source code form) and especially developed program packages (Jörg van den Hoff, Frank Hofheinz, Helmholtz-Zentrum Dresden-Rossendorf, Dresden, Germany).

DU-145 tumors [5] = test system: DU-145 tumors; design: species or system mice; details: mouse, in vivo
Procedure: as §2

[6] = design: species or system mice; details: mouse, in vivo
Procedure: as §1

[7] = rat, in vivo
Procedure: Biodistribution in distinct organs and tissues of healthy rats was measured at 5 and 60 min after single intravenous injection of the ^68Ga- or ^64Cu-radiotracers 9b-c, 10b-c, and 15b-c in rats (see ^68Ga-tracers in Figure 3 and ^64Cu-tracers in Figure 4).
The molar activity was approximately 30 GBq × mmol^–1 at the time of injection (Table 3). […] Animals were sacrificed at 5 and 60 min post injection. Blood and the major organs were collected, weighed, and counted in a Wallac WIZARD automatic gamma counter (PerkinElmer, Germany). The radioactivity of the samples was decay-corrected and calibrated by comparing the counts in tissue with the counts in aliquots of the injected radiotracer that had been measured in the gamma counter at the same time. The activity amount in organs that could be completely extracted was expressed as percent of injected dose (% ID). The activity concentrations in tissues were calculated as standardized uptake values [SUV = (activity × mL^–1 tissue)/(injected activity/body weight), mL × g^–1)]. The SUV was used for better comparison within animals of different size and weight and with other species and to compare the biodistribution and the PET data.

DU-145 tumors [8] = test: Biodistribution of 10c in DU-145 tumor bearing mice with blocking; type: in vivo; details: one hour after injection
Procedure: as §1

[9] = design: species or system rats; details: rat, in vivo
[10] = COS-7 cells transfected with the Ghrelin receptor
[11] = inverse agonist potency, COS-7 cells transfected with the Ghrelin receptor
[12] = EC50, inverse agonist potency, COS-7 cells transfected with the Ghrelin receptor
[13] = pEC50 ± SEM, COS-7 cells transfected with the Ghrelin receptor

T1 sequence (Q92847 whole entry, species assumed): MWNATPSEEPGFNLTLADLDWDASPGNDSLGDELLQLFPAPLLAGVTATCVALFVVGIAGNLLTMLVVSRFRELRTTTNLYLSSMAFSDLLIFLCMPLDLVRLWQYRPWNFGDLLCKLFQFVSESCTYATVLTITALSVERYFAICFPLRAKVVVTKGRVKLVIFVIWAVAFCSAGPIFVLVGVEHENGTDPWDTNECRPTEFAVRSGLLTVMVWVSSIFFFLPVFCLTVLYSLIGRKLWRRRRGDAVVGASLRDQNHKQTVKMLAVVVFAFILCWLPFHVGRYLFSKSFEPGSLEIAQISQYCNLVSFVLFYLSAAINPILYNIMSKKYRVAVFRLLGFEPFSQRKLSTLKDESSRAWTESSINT

Compound | pEC50 ± SEM (Ghrelin receptor [1]; [10]) | x-fold over No. 2 (Ghrelin receptor [1]) | Δeff (%) (Ghrelin receptor [1]) | EC50 (Ghrelin receptor [1]; [11]) [nM] | also measured
[^natGa]Ga-NODAGA-K-(D-1-Nal)-FwLL-NH2 [9a] | 7.2 ± 0.10 | 14 | 88% and 88 ± 8% | 64.8 | 
[^natGa]Ga-NODAGA-KK-(D-1-Nal)-FwLK(Palm)-NH2 [15a] | 7.8 ± 0.05 | 4 | 89 ± 3% | 16.5 | x-fold over Ghrelin (Ghrelin receptor [2]): 21; x-fold over 2 (Ghrelin receptor [2]): 2; Ki (Ghrelin receptor [2]): 11 ± 4.3 nM
PEG2-K[^natGa]Ga-NODAGA-K-(D-1-Nal)-FwLL-NH2 [14a] |  | > 1000 |  | > 1000 | EC50 (Ghrelin receptor [1]; value given in the text): 1800 ± 600 nM
[^64Cu]Cu-NODAGA-NH-K-K-(D-1-NaI)-F-w-L-L-NH2 [10c] |  |  |  |  | tumor to muscle ratio as percent of control (PC-3 tumors [3]; blocked with 1 mg/kg Ghrelin): 83.4 ± 18.4%; tumor to muscle ratio as percent of control (PC-3 tumors [3]; blocked with 1 mg/kg KKD): 51.2 ± 4.5%; activity concentration in tumor (PC-3 tumors [4]): 2.02 ± 0.28 SUV; activity concentration in tumor (PC-3 tumors [4]; 1 mg/kg): 0.99 ± 0.05 SUV; activity concentration in tumor (DU-145 tumors [5]): 1.34 ± 0.24 SUV; activity concentration in tumor (DU-145 tumors [5]; 1 mg/kg): 0.68 ± 0.05 SUV; specific tumor uptake relative to the compound of Charron et al. [6]: approximately 10 times; uptake in organs and tissues [6]: > 0.3 SUV; brain uptake [7]: 0.06-0.1 SUV; tumor to muscle ratio as percent of control (DU-145 tumors [8]; blocked with 1 mg/kg Ghrelin): 71.0 ± 10.7%; tumor to muscle ratio as percent of control (DU-145 tumors [8]; blocked with 1 mg/kg KKD): 59.7 ± 30.2%; original compound found in the kidneys [9]: 1%; original compound found in the liver [9]: 14%; original compound found in the urine [9]: 6%
[^natGa]Ga-NODAGA-K(Palm)-K-(D-1-Nal)-FwLL-NH2 [12a] | 7.7 ± 0.06 | 5 | 92% and 92 ± 4% | 20.3 | x-fold over Ghrelin (Ghrelin receptor [2]): 126; x-fold over 2 (Ghrelin receptor [2]): 14; Ki (Ghrelin receptor [2]): 66.9 ± 25.7 nM
Palm-K[^natGa]Ga-NODAGA-K-(D-1-Nal)-FwLL-NH2 [13a] | 7.5 ± 0.06 | 6 | 92% and 92 ± 3% | 28.7 | 
[^natGa]Ga-NODAGA-KK-(D-1-Nal)-FwLL-NH2 [10a] | 7.5 ± 0.07 | 8 | 98% and 98 ± 4% | 34.7 | x-fold over Ghrelin (Ghrelin receptor [2]): 57; x-fold over 2 (Ghrelin receptor [2]): 6; Ki (Ghrelin receptor [2]): 30.3 ± 7.5 nM
K[^natGa]Ga-NODAGA-K-(D-1-Nal)-FwLK(Palm)-NH2 [16a] | 7.9 ± 0.07 | 3 | 90 ± 4% | 13.6 | 

Further lines, with some results ahead:

pEC50 ± SEM (Ghrelin receptor [1]; [10]) | x-fold over No. 2 (Ghrelin receptor [1]) | Δeff (%) (Ghrelin receptor [1]) | EC50 (Ghrelin receptor [1]; [11]) [nM] | Compound | also measured
6.8 ± 0.10 |  |  | 166 | K-(D-1-Nal)-FwLK(PEG2)-NH2 (K[d1Nal]F[dW]LK(PEG2′)-NH2) [compound 7] | 
 |  | 85% and 85 ± 2% |  | CCCCCCCCCCCCCCCC(=O)NCCCC[C@H](NC(=O)[C@H](CC(C)C)NC(=O)[C@@H](Cc1c[nH]c2ccccc12)NC(=O)[C@H](Cc1ccccc1)NC(=O)[C@@H](Cc1cccc2ccccc12)NC(=O)[C@@H](N)CCCCN)C(N)=O [compound 5] (H-K[d1Nal]F[dW]LK(Palmitoyl)-NH2) | EC50 (Ghrelin receptor [1]; [12]): 3.5 nM; EC50 (Ghrelin receptor [1]; [13]): 3.16 nM
 | 2 | 86 ± 2% |  | CCCCCCCCCCCCCCCC(=O)N[C@@H](CCCCN)C(=O)N[C@@H](CCCCN)C(=O)N[C@H](Cc1cccc2ccccc12)C(=O)N[C@@H](Cc1ccccc1)C(=O)N[C@H](Cc1c[nH]c2ccccc12)C(=O)N[C@@H](CC(C)C)C(=O)N[C@@H](CC(C)C)C(N)=O [compound 6, Palm-KK-(D-1-Nal)-FwLL-NH2] (Palmitoyl-KK[d1Nal]F[dW]LL-NH2) | EC50 (Ghrelin receptor [1]; [12]): 11 nM
 |  | 63% and 63 ± 2% |  | CC(C)C[C@H](NC(=O)[C@H](CC(C)C)NC(=O)[C@@H](Cc1c[nH]c2ccccc12)NC(=O)[C@H](Cc1ccccc1)NC(=O)[C@@H](Cc1cccc2ccccc12)NC(=O)[C@H](CCCCN)NC(=O)[C@@H](N)CCCCN)C(N)=O [compound 4, KK-(D-1-Nal)-FwLL-NH2] (H-KK[d1Nal]F[dW]LL-NH2) | EC50 (Ghrelin receptor [1]; [12]): 13 nM; EC50 (Ghrelin receptor [1]; [13]): 12.6 nM
 |  | 42% and 42 ± 1% |  | CC(C)C[C@H](NC(=O)[C@@H](Cc1c[nH]c2ccccc12)NC(=O)[C@H](Cc1ccccc1)NC(=O)[C@@H](Cc1cccc2ccccc12)NC(=O)[C@@H](N)CCCCN)C(=O)N[C@@H](CCCCN)C(N)=O [compound 3, K-(D-1-Nal)-FwLK-NH2] (H-K[d1Nal]F[dW]LK-NH2) | EC50 (Ghrelin receptor [1]; [12]): 162 nM; EC50 (Ghrelin receptor [1]; [13]): 158 nM
6.3 ± 0.08 | 111 | 85 ± 3% | 499 | PEG2-KK-(D-1-Nal)-FwLL-NH2 [compound 8] | 
6.2 ± 0.10 | 132 | 85 ± 6% | 592 | Palm-KK-(D-1-Nal)-FwLK[^natGa]Ga-NODAGA-NH2 [17a] | 
 | 37 | 61 ± 3% |  | K-(D-1-Nal)-FwLK(PEG2)-NH2 [compound 7] | 
6.6 ± 0.10 | 59 | 75 ± 6% | 267 | K(Palm)-K-(D-1-Nal)-FwLK[^natGa]Ga-NODAGA-NH2 [18a] | 

— publication PMC7939532 (Oncotarget, 2021)
